Assay results reported in ChEMBL document CHEMBL1121623, “Thrombin inhibitors. 3. Carboxyl-containing amide derivatives of N alpha-substituted L-arginine” (J Med Chem, 1980).
pIC50: −log10 of the molar value.

Key:
Prothrombin [1] = molecular target: T1, Prothrombin (Bos taurus, UniProt P00735); test: (§1) Concentration at which the clotting time was prolonged by twice that of the control by inhibiting thrombin; assay type: functional; settings: read-out: I50
Prothrombin [2] = molecular target: T1, Prothrombin; test: as §1; settings: read-out: I50

| Structure (SMILES) | pIC50 (Prothrombin [1]) | pIC50 (Prothrombin [2]) |
| --- | --- | --- |
| CCC1CCN(C(=O)C(CCCN=C(N)N)NS(=O)(=O)c2ccc3cc(OC)c(OC)cc3c2)C(C(=O)O)C1 (configuration not stated) | 6.60 | – |
| CCCCN(CC(=O)O)C(=O)C(CCCN=C(N)N)NS(=O)(=O)c1ccc2ccccc2c1 (configuration not stated) | – | < 4.00 |
| COc1cc2ccc(S(=O)(=O)NC(CCCN=C(N)N)C(=O)N(C)CC(=O)O)cc2cc1OC (configuration not stated) | – | < 4.00 |
| COCCN(CC(=O)O)C(=O)C(CCCN=C(N)N)NS(=O)(=O)c1ccc2cc3c(cc2c1)OCCO3 (configuration not stated) | 4.24 | – |
| COc1cc2ccc(S(=O)(=O)NC(CCCN=C(N)N)C(=O)N(CC(=O)O)Cc3ccccc3)cc2cc1OC (configuration not stated) | – | 5.60 |
| CCCCN(CC(=O)O)C(=O)C(CCCN=C(N)N)NS(=O)(=O)c1cccc2c(N(C)C)cccc12 (configuration not stated) | – | 5.40 |
| COc1cc2ccc(S(=O)(=O)NC(CCCN=C(N)N)C(=O)N(CC(=O)O)CC3CCCO3)cc2cc1OC (configuration not stated) | – | 6.70 |
| COc1cc2ccc(S(=O)(=O)NC(CCCN=C(N)N)C(=O)N(CC(=O)O)CC(C)C)cc2cc1OC (configuration not stated) | – | 5.70 |
| CCCCN(CC(=O)O)C(=O)C(CCCN=C(N)N)NS(=O)(=O)c1ccc2ccc(C)cc2c1 (configuration not stated) | – | 6.52 |
| COc1cc2ccc(S(=O)(=O)NC(CCCN=C(N)N)C(=O)N(CC(=O)O)C3CCCCCC3)cc2cc1OC (configuration not stated) | – | 4.82 |
| CCCCN(CC(=O)O)C(=O)C(CCCN=C(N)N)NS(=O)(=O)c1ccc2ccc(OC)cc2c1 (configuration not stated) | – | 6.30 |
| COCCN(CC(=O)O)C(=O)C(CCCN=C(N)N)NS(=O)(=O)c1cccc2c1CCCC2 (configuration not stated) | 5.00 | – |
| COCCN(CC(=O)O)C(=O)C(CCCN=C(N)N)NS(=O)(=O)c1cc(OC)c2cc(OC)ccc2c1 (configuration not stated) | – | 5.40 |
| CCCN(CC(=O)O)C(=O)C(CCCN=C(N)N)NS(=O)(=O)c1ccc2cc(OC)c(OC)cc2c1 (configuration not stated) | – | 5.10 |
| COc1cc2ccc(S(=O)(=O)NC(CCCN=C(N)N)C(=O)N3CCC(c4ccccc4)CC3C(=O)O)cc2cc1OC (configuration not stated) | 4.92 | – |
| N=C(N)NCCCC(NS(=O)(=O)c1cccc2c1CCCC2)C(=O)N(CC(=O)O)CC1CCCO1 (configuration not stated) | 5.19 | – |
| COCCN(CC(=O)O)C(=O)C(CCCN=C(N)N)NS(=O)(=O)c1cccc2cc(C)c(C)cc12 (configuration not stated) | – | 5.00 |
| CCCCN(CC(=O)O)C(=O)C(CCCN=C(N)N)NS(=O)(=O)c1ccc2oc3ccccc3c2c1 (configuration not stated) | 6.52 | – |
| COCCN(CC(=O)O)C(=O)C(CCCN=C(N)N)NS(=O)(=O)c1cccc2c(N(C)C)cccc12 (configuration not stated) | – | 5.30 |
| COc1ccc2ccc(S(=O)(=O)NC(CCCN=C(N)N)C(=O)N3CCC(C)CC3C(=O)O)cc2c1 (configuration not stated) | – | 6.82 |
| CC1CCN(C(=O)C(CCCN=C(N)N)NS(=O)(=O)c2cccc3c(N(C)C)cccc23)C(C(=O)O)C1 (configuration not stated) | – | 5.40 |
| CC1CCN(C(=O)C(CCCN=C(N)N)NS(=O)(=O)c2cccc3c2CCCC3)C(C(=O)O)C1 (configuration not stated) | – | 6.22 |
| CCCCN(CC(=O)O)C(=O)C(CCCN=C(N)N)NS(=O)(=O)c1ccc2c(c1)CCCC2 (configuration not stated) | 4.22 | – |
| COc1cc2ccc(S(=O)(=O)NC(CCCN=C(N)N)C(=O)N3Cc4ccccc4C3C(=O)O)cc2cc1OC (configuration not stated) | 5.82 | – |
| CCOc1cc2ccc(S(=O)(=O)NC(CCCN=C(N)N)C(=O)N3CCC(C)CC3C(=O)O)cc2cc1OCC (configuration not stated) | – | 5.40 |
| COc1cc2ccc(S(=O)(=O)NC(CCCN=C(N)N)C(=O)N3CCCCC3C(=O)O)cc2cc1OC (configuration not stated) | – | 5.35 |

| Structure (SMILES) | pIC50 (Prothrombin [1]) | pIC50 (Prothrombin [2]) |
| --- | --- | --- |
| COCCN(C(=O)C(CCCN=C(N)N)NS(=O)(=O)c1ccc2cc(OC)c(OC)cc2c1)C(C)C(=O)O (configuration not stated) | – | 5.30 |
| CC1CCN(C(=O)C(CCCN=C(N)N)NS(=O)(=O)c2cccc3ccccc23)C(C(=O)O)C1 (configuration not stated) | – | 6.00 |
| COc1cc2ccc(S(=O)(=O)NC(CCCN=C(N)N)C(=O)N3CCc4ccccc4C3C(=O)O)cc2cc1OC (configuration not stated) | 6.15 | – |
| COc1cc2ccc(S(=O)(=O)NC(CCCN=C(N)N)C(=O)N3CCC(C(=O)O)CC3)cc2cc1OC (configuration not stated) | – | 3.82 |
| COc1ccc2ccc(S(=O)(=O)NC(CCCN=C(N)N)C(=O)N3CCCCCC3C(=O)O)cc2c1 (configuration not stated) | 5.60 | – |
| CC1CCN(C(=O)C(CCCN=C(N)N)NS(=O)(=O)c2ccc3c(c2)Sc2ccccc2O3)C(C(=O)O)C1 (configuration not stated) | 6.60 | – |
| CC(C)C1CCN(C(=O)C(CCCN=C(N)N)NS(=O)(=O)c2ccc3cc(Cl)ccc3c2)C(C(=O)O)C1 (configuration not stated) | – | 6.30 |
| CC(C)C1CCN(C(=O)C(CCCN=C(N)N)NS(=O)(=O)c2ccc3ccccc3c2)C(C(=O)O)C1 (configuration not stated) | – | 4.30 |
| COCCCN(CC(=O)O)C(=O)C(CCCN=C(N)N)NS(=O)(=O)c1ccc2cc(OC)c(OC)cc2c1 (configuration not stated) | – | 5.30 |
| Cc1ccc2ccc(S(=O)(=O)NC(CCCN=C(N)N)C(=O)N3CCC(C(C)C)CC3C(=O)O)cc2c1 (configuration not stated) | – | 7.00 |
| CCCCCN(CC(=O)O)C(=O)C(CCCN=C(N)N)NS(=O)(=O)c1ccc2cc(OC)c(OC)cc2c1 (configuration not stated) | – | 6.00 |
| CCC1CCN(C(=O)C(CCCN=C(N)N)NS(=O)(=O)c2ccc3ccc(OC)cc3c2)C(C(=O)O)C1 (configuration not stated) | – | 7.00 |
| Cc1ccc2ccc(S(=O)(=O)NC(CCCN=C(N)N)C(=O)N3CCC(C)CC3C(=O)O)cc2c1 (configuration not stated) | – | 6.82 |
| CCCCN(CC(=O)O)C(=O)C(CCCN=C(N)N)NS(=O)(=O)c1cccc2c1CCCC2 (configuration not stated) | 4.70 | – |
| COc1cc2ccc(S(=O)(=O)NC(CCCN=C(N)N)C(=O)N(CCc3ccccc3)CC(=O)O)cc2cc1OC (configuration not stated) | – | 5.52 |
| CCCCN(CC(=O)O)C(=O)C(CCCN=C(N)N)NS(=O)(=O)c1ccc2cc(OC)ccc2c1 (configuration not stated) | – | 6.30 |
| CCCCCN(CC(=O)O)C(=O)C(CCCN=C(N)N)NS(=O)(=O)c1cccc2c1CCCC2 (configuration not stated) | 4.00 | – |
| COc1cc2ccc(S(=O)(=O)NC(CCCN=C(N)N)C(=O)N3C(C(=O)O)CCCC3C(=O)O)cc2cc1OC (configuration not stated) | – | < 4.00 |
| CC1CCN(C(=O)C(CCCN=C(N)N)NS(=O)(=O)c2cccc3c2oc2ccccc23)C(C(=O)O)C1 (configuration not stated) | 6.82 | – |
| COc1ccc2ccc(S(=O)(=O)NC(CCCN=C(N)N)C(=O)N3CCC(C(C)C)CC3C(=O)O)cc2c1 (configuration not stated) | – | 6.82 |
| COCCN(CC(=O)O)C(=O)C(CCCN=C(N)N)NS(=O)(=O)c1ccc2ccc(OC)cc2c1 (configuration not stated) | – | 6.30 |
| COc1cc2ccc(S(=O)(=O)NC(CCCN=C(N)N)C(=O)N3CCCC(C(=O)O)C3)cc2cc1OC (configuration not stated) | – | 4.40 |
| COCCN(CC(=O)O)C(=O)C(CCCN=C(N)N)NS(=O)(=O)c1cccc2ccccc12 (configuration not stated) | – | 4.52 |
| CCCCN(CC(=O)O)C(=O)C(CCCN=C(N)N)NS(=O)(=O)c1cc(OC)c2cc(OC)ccc2c1 (configuration not stated) | – | 5.70 |
| Cc1ccc2cc(S(=O)(=O)NC(CCCN=C(N)N)C(=O)N3CCC(C(C)C)CC3C(=O)O)ccc2c1 (configuration not stated) | – | 6.46 |
| CN(C)c1cccc2c(S(=O)(=O)NC(CCCN=C(N)N)C(=O)N(CC(=O)O)CC3CCCO3)cccc12 (configuration not stated) | – | 5.70 |

| Structure (SMILES) | pIC50 (Prothrombin [1]) | pIC50 (Prothrombin [2]) |
| --- | --- | --- |
| COc1ccc2cc(S(=O)(=O)NC(CCCN=C(N)N)C(=O)N3CCCCC3C(=O)O)ccc2c1 (configuration not stated) | – | 4.00 |
| CCCCN(CC(=O)O)C(=O)C(CCCN=C(N)N)NS(=O)(=O)c1cccc2c(OC)cccc12 (configuration not stated) | – | 5.40 |
| COCCN(CC(=O)O)C(=O)C(CCCN=C(N)N)NS(=O)(=O)c1ccc2ccc(C)cc2c1 (configuration not stated) | – | 6.46 |
| COc1ccc2ccc(S(=O)(=O)NC(CCCN=C(N)N)C(=O)N(CC(=O)O)CC3CCCO3)cc2c1 (configuration not stated) | – | 6.82 |
| COCCN(CC(=O)O)C(=O)C(CCCN=C(N)N)NS(=O)(=O)c1cccc2c(OC)cccc12 (configuration not stated) | – | 5.60 |
| COCCN(CC(=O)O)C(=O)C(CCCN=C(N)N)NS(=O)(=O)c1ccc2sc3ccccc3c2c1 (configuration not stated) | 6.35 | – |
| COc1cc2ccc(S(=O)(=O)NC(CCCN=C(N)N)C(=O)N3CCC(C)CC3C(=O)O)cc2cc1OC (configuration not stated) | – | 6.40 |
| CCCCN(CC(=O)O)C(=O)C(CCCN=C(N)N)NS(=O)(=O)c1ccc2cc(OC)c(OC)cc2c1 (configuration not stated) | – | 6.52 |
| COCCN(CC(=O)O)C(=O)C(CCCN=C(N)N)NS(=O)(=O)c1ccc2c(c1)Sc1ccccc1O2 (configuration not stated) | 6.46 | – |
| N=C(N)NCCCC(NS(=O)(=O)c1cccc2ccccc12)C(=O)N(CC(=O)O)CC1CCCO1 (configuration not stated) | – | 4.52 |
| COc1ccc2ccc(S(=O)(=O)NC(CCCN=C(N)N)C(=O)N3CCCCC3C(=O)O)cc2c1 (configuration not stated) | – | 5.30 |
| CCOc1cc2ccc(S(=O)(=O)NC(CCCN=C(N)N)C(=O)N(CCOC)CC(=O)O)cc2cc1OCC (configuration not stated) | – | 4.82 |
| COc1cc2ccc(S(=O)(=O)NC(CCCN=C(N)N)C(=O)N(CC(=O)O)CC3CCCCC3)cc2cc1OC (configuration not stated) | – | 4.82 |
| COc1ccc2cc(S(=O)(=O)NC(CCCN=C(N)N)C(=O)N3CCC(C)CC3C(=O)O)cc(OC)c2c1 (configuration not stated) | – | 6.47 |
| COCCN(CC(=O)O)C(=O)C(CCCN=C(N)N)NS(=O)(=O)c1ccc2oc3ccccc3c2c1 (configuration not stated) | 6.46 | – |
| CCSCCN(CC(=O)O)C(=O)C(CCCN=C(N)N)NS(=O)(=O)c1ccc2cc(OC)c(OC)cc2c1 (configuration not stated) | – | 5.30 |
| CCCCCCCCN(CC(=O)O)C(=O)C(CCCN=C(N)N)NS(=O)(=O)c1ccc2cc(OC)c(OC)cc2c1 (configuration not stated) | – | < 4.00 |
| Cc1ccc2ccc(S(=O)(=O)NC(CCCN=C(N)N)C(=O)N(CC(=O)O)CC3CCCO3)cc2c1 (configuration not stated) | – | 6.70 |
| COc1cc2ccc(S(=O)(=O)NC(CCCN=C(N)N)C(=O)N(CC(=O)O)C3CCCCC3)cc2cc1OC (configuration not stated) | – | 5.30 |
| CC1CCN(C(=O)C(CCCN=C(N)N)NS(=O)(=O)c2ccc3c(c2)-c2ccccc2C3)C(C(=O)O)C1 (configuration not stated) | – | 7.00 |
| COCCN(CCCC(=O)O)C(=O)C(CCCN=C(N)N)NS(=O)(=O)c1ccc2cc(OC)c(OC)cc2c1 (configuration not stated) | – | 4.40 |
| COCCN(CCC(=O)O)C(=O)C(CCCN=C(N)N)NS(=O)(=O)c1ccc2cc(OC)c(OC)cc2c1 (configuration not stated) | – | 5.43 |
| COCCN(CC(=O)O)C(=O)C(CCCN=C(N)N)NS(=O)(=O)c1ccc2cc(OC)c(OC)cc2c1 (configuration not stated) | – | 6.52 |
| CCCCCCN(CC(=O)O)C(=O)C(CCCN=C(N)N)NS(=O)(=O)c1ccc2cc(OC)c(OC)cc2c1 (configuration not stated) | – | 6.82 |
| Cc1cc2ccc(S(=O)(=O)NC(CCCN=C(N)N)C(=O)N(CC(=O)O)CC3CCCO3)cc2cc1C (configuration not stated) | – | 5.52 |
